According to patent publication US7858630B2, “D3 and 5-HT2A receptor modulators” (Hoffmann-La Roche Inc., priority 2008, dated 2010):
pKi: −log10 of the molar value.

Key:
[1] = target: T1, human serotonin 5-HT2A receptor (Homo sapiens, UniProt P28223); test: Radioligand binding ([3H]-ketanserin) to membranes of HEK-293 EBNA cells expressing human 5-HT2A receptor; conditions: 1.1 nM [3H]-ketanserin, HEK-293 EBNA membranes, 1 h at RT
T1 construct: expressed in transfected cells; host or cells: HEK-293 EBNA cells, transient transfection; membrane preparation
Procedure: (§1) The ability of the compounds to bind to the 5-HT2A, D3 and D2 receptors was determined using radioligand binding to cloned receptors selectively expressed in HEK-293 EBNA cells.
(§2) Membrane Preparation for Human D2, Human D3 and Human 5-HT2A Receptors
(§3) HEK-293 EBNA cells were transiently transfected with expression plasmids encoding for the human D2 or D3 dopamine- or for the human 5-HT2A serotonin receptor, respectively. The cells were harvested 48 h post-transfection, washed three times with cold PBS and stored at −80° C. prior to use. The pellet was suspended in cold 50 mM Tris-HCl buffer containing 10 mM EDTA (pH 7.4) and homogenized with a Polytron (Kinematica AG, Basel, Switzerland) for 20-30 sec at 12.000 rpm. After centrifugation at 48.000×g for 30 min at 4° C., the pellet was resuspended in cold 10 mM Tris-HCl buffer containing 0.1 mM EDTA (pH 7.4), homogenized, and centrifuged as above. This pellet was further resuspended in a smaller volume of ice cold 10 mM Tris-HCl buffer containing 0.1 mM EDTA (pH 7.4) and homogenized with a Polytron for 20-30 sec at 12.000 rpm. The protein content of this homogenate was determined with the Bio-Rad (Bradford) Protein Assay (Biorad Laboratories GmbH, München, Germany) according to the instructions of the manufacturer using gamma globulin as the standard. This homogenate was stored at −80° C. in aliquots and thawed immediately prior to use.
(§4) Radioligand Binding Assay Conditions
(§5) Aliquots of membrane preparations were thawed at RT, resupended in assay buffer (D2, D3: 50 mM Tris-HCl, 120 mM NaCl, 5 mM MgCl2, 1 mM EDTA, 5 mM KCl, 1.5 mM CaCl2, pH=7.4; 5-HT2A: 50 mM Tris-HCl, 10 mM MgCl2, 1 mM EGTA, pH=7.4), homogenized with a Polytron for 20-30 sec at 12.000 rpm and adjusted to a final concentration of approximately 7.5 μg protein/well (D2, D3) and 15 μg protein/well (5-HT2A), respectively.
(§6) The binding affinity (Ki) of the compounds was determined using radioligand binding. Membranes were incubated in a total volume of 200 μl with a fixed concentration of radioligand (final concentration approximately 0.7 nM [^3H]-spiperone for D2, 0.5 nM [^3H]-spiperone for D3, and 1.1 nM [^3H]-ketanserin for 5-HT2A) and ten concentrations of test compound in ranging between 10 μM-0.1 nM for 1 h at RT. At the end of the incubation, the reaction mixtures were filtered on to unifilter 96-well white microplates with bonded GF/C filters (Packard BioScience, Zurich, Switzerland; preincubated for 1 h in 0.1% polyethylenimine (PEI) in assay buffer) with a Filtermate 196 harvester (Packard BioScience) and washed 3 times with cold assay buffer. The nonspecific binding was determined with equally composed reaction mixtures in the presence of 10 μM unlabelled spiperone. Per well 45 μl of Microscint 40 (Perkin Elmer, Schwerzenbach, Switzerland) was added, plates for sealed, shaken for 20 min and counted for 3 min on a Topcount Microplate Scintillation Counter (Canberra Packard SA, Zurich, Switzerland) with quenching correction.
(§7) The CPM value for each duplicate of a concentration of competing compound was averaged (y1), then the % specific binding was calculated according to the equation (((y1−non-specific)/(total binding-non-specific))×100). Graphs were plotted with the % specific binding using XLfit, a curve fitting program that iteratively plots the data using Levenburg Marquardt algorithm. The single site competition analysis equation used was y=A+((B−A)/(1+((x/C)^D))), where y is the % specific binding, A is the minimum y, B is the maximum y, C is the IC50, x is the log10 of the concentration of the competing compound and D is the slope of the curve (the Hill Coefficient). From these curves the IC50 (inhibition concentration at which 50% specific binding of the radioligand was displaced) and Hill coefficient were determined. […]

[2] = target: T2, human dopamine D3 receptor (Homo sapiens, UniProt P35462); test: Radioligand binding ([3H]-spiperone) to membranes of HEK-293 EBNA cells expressing human D3 receptor; conditions: human D3, 0.5 nM [3H]-spiperone, HEK-293 EBNA membranes, 1 h at RT
T2 construct: expressed in transfected cells; host or cells: HEK-293 EBNA cells, transient transfection; membrane preparation
Procedure: as §1, §2, §3, §4, §5, §6, §7

[3] = target: T3, human dopamine D2 receptor (Homo sapiens, UniProt P14416); test: Radioligand binding ([3H]-spiperone) to membranes of HEK-293 EBNA cells expressing human D2 receptor; conditions: human D2, 0.7 nM [3H]-spiperone, HEK-293 EBNA membranes, 1 h at RT
T3 construct: expressed in transfected cells; host or cells: HEK-293 EBNA cells, transient transfection; membrane preparation
Procedure: as §1, §2, §3, §4, §5, §6, §7

T2 sequence (P35462 whole entry): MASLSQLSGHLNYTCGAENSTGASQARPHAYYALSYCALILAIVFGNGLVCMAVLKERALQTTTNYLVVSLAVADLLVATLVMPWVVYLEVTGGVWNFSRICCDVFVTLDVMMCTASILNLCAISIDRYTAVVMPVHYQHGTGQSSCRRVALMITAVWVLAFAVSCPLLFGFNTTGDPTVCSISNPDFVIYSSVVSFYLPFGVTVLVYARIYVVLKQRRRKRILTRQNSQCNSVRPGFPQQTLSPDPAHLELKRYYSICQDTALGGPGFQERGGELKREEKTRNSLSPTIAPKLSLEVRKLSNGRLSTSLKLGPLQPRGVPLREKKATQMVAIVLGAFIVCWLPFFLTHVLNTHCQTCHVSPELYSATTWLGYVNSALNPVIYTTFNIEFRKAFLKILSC
T1 sequence (P28223 whole entry): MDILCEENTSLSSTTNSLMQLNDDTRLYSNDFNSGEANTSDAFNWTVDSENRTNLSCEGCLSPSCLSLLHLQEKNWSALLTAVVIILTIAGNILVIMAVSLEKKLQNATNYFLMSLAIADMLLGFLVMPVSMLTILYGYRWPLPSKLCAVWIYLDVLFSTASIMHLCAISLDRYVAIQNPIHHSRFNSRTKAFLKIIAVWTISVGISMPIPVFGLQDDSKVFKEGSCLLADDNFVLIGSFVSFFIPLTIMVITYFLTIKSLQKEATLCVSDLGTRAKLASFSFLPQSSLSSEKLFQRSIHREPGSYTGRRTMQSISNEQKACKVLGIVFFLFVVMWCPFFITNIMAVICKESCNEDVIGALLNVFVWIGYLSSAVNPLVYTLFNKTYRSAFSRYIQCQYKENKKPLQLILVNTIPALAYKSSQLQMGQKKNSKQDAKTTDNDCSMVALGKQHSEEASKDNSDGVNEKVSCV
T3 sequence (P14416 whole entry): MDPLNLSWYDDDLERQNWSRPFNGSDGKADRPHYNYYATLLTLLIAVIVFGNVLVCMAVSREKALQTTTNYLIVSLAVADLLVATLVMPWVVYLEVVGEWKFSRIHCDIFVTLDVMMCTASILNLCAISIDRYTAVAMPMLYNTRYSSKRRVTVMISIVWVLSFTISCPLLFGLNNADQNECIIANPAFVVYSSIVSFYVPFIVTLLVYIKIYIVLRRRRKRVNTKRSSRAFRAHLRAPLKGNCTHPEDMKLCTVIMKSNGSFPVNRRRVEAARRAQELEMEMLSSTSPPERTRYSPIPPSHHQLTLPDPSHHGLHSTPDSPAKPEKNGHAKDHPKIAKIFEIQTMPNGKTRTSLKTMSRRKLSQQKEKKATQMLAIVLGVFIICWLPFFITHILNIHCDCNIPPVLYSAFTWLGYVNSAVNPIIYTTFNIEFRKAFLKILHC

Q: Cc1cc2c(N3CCN(CC[C@H]4CC[C@H](NC(=O)C[C@H](O)C(F)(F)F)CC4)CC3)noc2cc1F [Example 116, (S)-4,4,4-Trifluoro-N-trans-(4-{2-[4-(6-fluoro-5-methyl-benzo[d]isoxazol-3-yl)-piperazin-1-yl]-ethyl}-cyclohexyl)-3-hydroxy-butyramide] was tested. Which pKi [1] did it give?
A: 7.48

Q: And the pKi [2]?
A: 7.70

Q: And the pKi [3]?
A: 5.48

Q: Which results are given for CCC(=O)N[C@H]1CC[C@H](CCN2CCN(c3noc4cc(F)c(Cl)cc34)CC2)CC1 [Example 86, N-trans-(4-{2-[4-(5-Chloro-6-fluoro-benzo[d]isoxazol-3-yl)-piperazin-1-yl]-ethyl}-cyclohexyl)-propionamide]?
A: pKi [1]: 8.02; pKi [2]: 8.29; pKi [3]: 6.60

Q: O=C(CO)N[C@H]1CC[C@H](CCN2CCN(c3noc4ccccc34)CC2)CC1 [Example 4, N-trans-{4-[2-(4-Benzo[d]isoxazol-3-yl-piperazin-1-yl)-ethyl]-cyclohexyl}-2-hydroxy-acetamide] was tested. Which pKi [1] did it give?
A: 8.47

Q: What about the pKi [2] of the same compound?
A: 7.78

Q: What about the pKi [3] of the same compound?
A: 6.29

Q: COC(CC(=O)N[C@H]1CC[C@H](CCN2CCN(c3noc4cc(C)ccc34)CC2)CC1)OC [Example 103, 3,3-Dimethoxy-N-trans-(4-{2-[4-(6-methyl-benzo[d]isoxazol-3-yl)-piperazin-1-yl]-ethyl}-cyclohexyl)-propionamide] was tested. Which pKi [1] did it give?
A: 8.64

Q: And the pKi [2]?
A: 8.16

Q: And the pKi [3]?
A: 6.69

Q: How did the pKi [1] turn out when O=C(CC1C[C@@H]2CC[C@H]1O2)N[C@H]1CC[C@H](CCN2CCN(c3noc4ccc(F)cc34)CC2)CC1 (stereo in doubt) [Example 19, N-trans-(4-{2-[4-(5-Fluoro-benzo[d]isoxazol-3-yl)-piperazin-1-yl]-ethyl}-cyclohexyl)-2-(1R,4S)-7-oxa-bicyclo[2.2.1]hept-2-yl-acetamide] was run?
A: 7.69

Q: What about the pKi [2] of the same compound?
A: 7.44

Q: And the pKi [3]?
A: 5.99

Q: Which results are given for COCCC(=O)N[C@H]1CC[C@H](CCN2CCN(c3noc4cc(Cl)c(Cl)cc34)CC2)CC1 [Example 94, N-trans-(4-{2-[4-(5,6-Dichloro-benzo[d]isoxazol-3-yl)-piperazin-1-yl]-ethyl}-cyclohexyl)-3-methoxy-propionamide]?
A: pKi [1]: 7.58; pKi [2]: 8.65; pKi [3]: 5.71

Q: With CCC(=O)N[C@H]1CC[C@H](CCN2CCN(c3noc4cc(F)c(F)cc34)CC2)CC1 [Example 59, N-trans-(4-{2-[4-(5,6-Difluoro-benzo[d]isoxazol-3-yl)-piperazin-1-yl]-ethyl}-cyclohexyl)-propionamide] as the compound, how does the pKi [1] read?
A: 7.83

Q: What about the pKi [2] of the same compound?
A: 8.01

Q: What about the pKi [3] of the same compound?
A: 6.41

Q: Which results are given for CO[C@H]1CC[C@H](CC(=O)N[C@H]2CC[C@H](CCN3CCN(c4noc5cc(C)ccc45)CC3)CC2)CC1 [Example 100, 2-trans-(4-Methoxy-cyclohexyl)-N-trans-(4-{2-[4-(6-methyl-benzo[d]isoxazol-3-yl)-piperazin-1-yl]-ethyl}-cyclohexyl)-acetamide]?
A: pKi [1]: 8.28; pKi [2]: 7.75; pKi [3]: 6.31

Q: With O=C(CC1CCOCC1)N[C@H]1CC[C@H](CCN2CCN(c3noc4cc(Cl)c(Cl)cc34)CC2)CC1 [Example 97, N-trans-(4-{2-[4-(5,6-Dichloro-benzo[d]isoxazol-3-yl)-piperazin-1-yl]-ethyl}-cyclohexyl)-2-(tetrahydro-pyran-4-yl)-acetamide] as the compound, how does the pKi [1] read?
A: 7.51

Q: And the pKi [2]?
A: 8.02

Q: What about the pKi [3] of the same compound?
A: 4.94

Q: With COC(CC(=O)N[C@H]1CC[C@H](CCN2CCN(c3noc4cc(F)c(Cl)cc34)CC2)CC1)OC [Example 78, N-trans-(4-{2-[4-(5-Chloro-6-fluoro-benzo[d]isoxazol-3-yl)-piperazin-1-yl]-ethyl}-cyclohexyl)-3,3-dimethoxy-propionamide] as the compound, how does the pKi [1] read?
A: 8.30

Q: And the pKi [2]?
A: 8.20

Q: And the pKi [3]?
A: 5.88

Q: O=C(N[C@H]1CC[C@H](CCN2CCN(c3noc4cc(F)c(Cl)cc34)CC2)CC1)C1CCC1 [Example 92, Cyclobutanecarboxylic acid N-trans-(4-{2-[4-(5-chloro-6-fluoro-benzo[d]isoxazol-3-yl)-piperazin-1-yl]-ethyl}-cyclohexyl)-amide] was tested. Which pKi [1] did it give?
A: 7.94

Q: What about the pKi [2] of the same compound?
A: 7.91

Q: What about the pKi [3] of the same compound?
A: 5.39

Q: How did the pKi [1] turn out when CS(=O)(=O)CCC(=O)N[C@H]1CC[C@H](CCN2CCN(c3noc4cc(F)c(Cl)cc34)CC2)CC1 [Example 90, N-trans-(4-{2-[4-(5-Chloro-6-fluoro-benzo[d]isoxazol-3-yl)-piperazin-1-yl]-ethyl}-cyclohexyl)-3-methanesulfonyl-propionamide] was run?
A: 8.12

Q: What about the pKi [2] of the same compound?
A: 7.84

Q: And the pKi [3]?
A: 5.92

Q: Which results are given for O=C(N[C@H]1CC[C@H](CCN2CCN(c3noc4cc(Cl)ccc34)CC2)CC1)C1(O)CC1 [Example 38, 1-Hydroxy-cyclopropanecarboxylic acid N-trans-(4-{2-[4-(6-chloro-benzo[d]isoxazol-3-yl)-piperazin-1-yl]-ethyl}-cyclohexyl)-amide]?
A: pKi [1]: 8.09; pKi [2]: 7.90; pKi [3]: 6.50

Q: COCCC(=O)N[C@H]1CC[C@H](CCN2CCN(c3noc4ccc(F)cc34)CC2)CC1 [Example 5, N-trans-(4-{2-{4-(5-Fluoro-benzo[d]isoxazol-3-yl)-piperazin-1-yl]-ethyl}-cyclohexyl)-3-methoxy-propionamide] was tested. Which pKi [1] did it give?
A: 7.50

Q: What about the pKi [2] of the same compound?
A: 8.59

Q: What about the pKi [3] of the same compound?
A: 6.14

Q: How did the pKi [1] turn out when CCC(=O)N[C@H]1CC[C@H](CCN2CCN(c3noc4cc(Cl)ccc34)CC2)CC1 [Example 41, N-trans-(4-{2-[4-(6-Chloro-benzo[d]isoxazol-3-yl)-piperazin-1-yl]-ethyl}-cyclohexyl)-propionamide] was run?
A: 7.96

Q: And the pKi [2]?
A: 8.06

Q: What about the pKi [3] of the same compound?
A: 6.17

Q: With Cc1ccc2c(N3CCN(CC[C@H]4CC[C@H](NC(=O)CC5OCCCO5)CC4)CC3)noc2c1 [Example 101, 2-[1,3]Dioxan-2-yl-N-trans-(4-{2-[4-(6-methyl-benzo[d]isoxazol-3-yl)-piperazin-1-yl]-ethyl}-cyclohexyl)-acetamide] as the compound, how does the pKi [1] read?
A: 8.29

Q: And the pKi [2]?
A: 8.08

Q: And the pKi [3]?
A: 6.42

Q: CC(C)(O)CC(=O)N[C@H]1CC[C@H](CCN2CCN(c3noc4cc(F)c(F)cc34)CC2)CC1 [Example 64, N-trans-(4-{2-[4-(5,6-Difluoro-benzo[d]isoxazol-3-yl)-piperazin-1-yl]-ethyl}-cyclohexyl)-3-hydroxy-3-methyl-butyramide] was tested. Which pKi [1] did it give?
A: 7.93

Q: What about the pKi [2] of the same compound?
A: 8.00

Q: What about the pKi [3] of the same compound?
A: 6.22

Q: With COC[C@H]1C[C@H](CC(=O)N[C@H]2CC[C@H](CCN3CCN(c4noc5cc(Cl)ccc45)CC3)CC2)C1 [Example 48, N-trans-(4-{2-[4-(6-Chloro-benzo[d]isoxazol-3-yl)-piperazin-1-yl]-ethyl}-cyclohexyl)-2-trans-(3-methoxymethyl-cyclobutyl)-acetamide] as the compound, how does the pKi [1] read?
A: 8.42

Q: And the pKi [2]?
A: 8.00

Q: And the pKi [3]?
A: 6.15

Q: What does the source list for CC(C)OC1CCC(CC(=O)N[C@H]2CC[C@H](CCN3CCN(c4noc5ccc(F)cc45)CC3)CC2)CC1 (mixture of isomers) [Example 10, N-trans-(4-{2-[4-(5-Fluoro-benzo[d]isoxazol-3-yl)-piperazin-1-yl]-ethyl}-cyclohexyl)-2-(4-isopropoxy-cyclohexyl)-acetamide]?
A: pKi [1]: 7.98; pKi [2]: 8.18; pKi [3]: 4.94
